Assay results reported in the supplement of paper PMC9663587.

How the values were obtained:
ABT-737 = compound: CN(C)CC[C@H](CSc1ccccc1)Nc1ccc(S(=O)(=O)NC(=O)c2ccc(N3CCN(Cc4ccccc4-c4ccc(Cl)cc4)CC3)cc2)cc1[N+](=O)[O-] [ABT-737]
Saracatinib/AZD0530 = compound: CN1CCN(CCOc2cc(OC3CCOCC3)c3c(Nc4c(Cl)ccc5c4OCO5)ncnc3c2)CC1 [Saracatinib/AZD0530]
Flavopiridol [1] = compound: T1, CN1CC[C@H](c2c(O)cc(O)c3c(=O)cc(-c4ccccc4Cl)oc23)[C@H](O)C1 [Flavopiridol]
[2] = compound: CO[C@@H](C)Cn1c(=O)n(C)c2cnc3ccc(-c4cncc(C(C)(C)O)c4)cc3c21
Taselisib/GDC0032 = compound: Cc1nc(-c2cn3c(n2)-c2ccc(-c4cnn(C(C)(C)C(N)=O)c4)cc2OCC3)n(C(C)C)n1 [Taselisib/GDC0032]
YKL-5-124 = compound: C=CC(=O)Nc1ccc(C(=O)Nc2[nH]nc3c2CN(C(=O)N[C@H](CN(C)C)c2ccccc2)C3(C)C)cc1 [YKL-5-124]; test: GR value, 72 h; higher = faster growth (1 = untreated, <0 = killing);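 also: breast cancer and non-malignant breast epithelial lines, nine half-log doses, viable cells counted by Hoechst and LIVE/DEAD dye imaging versus time-zero plates and DMSO controls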
BSJ-03-123 = compound: CC(=O)c1c(C)c2cnc(Nc3ccc(N4CCN(CCOCCOCCOCCNC(=O)COc5cccc6c5C(=O)N(C5CCC(=O)NC5=O)C6=O)CC4)cn3)nc2n(C2CCCC2)c1=O [BSJ-03-123]; test: as above
[3] = compound: CC(=O)c1c(C)c2cnc(Nc3ccc(N4CCNCC4)cn3)nc2n(C2CCCC2)c1=O; test: as above
[4] = compound: CCN1CCN(Cc2ccc(Nc3ncc(F)c(-c4cc(F)c5nc(C)n(C(C)C)c5c4)n3)nc2)CC1; test: as above
Neratinib/HKI272 = compound: CCOc1cc2ncc(C#N)c(Nc3ccc(OCc4ccccn4)c(Cl)c3)c2cc1NC(=O)/C=C/CN(C)C [Neratinib/HKI272]; test: as above
[5] = compound: CCc1cnn2c(NCc3ccc[n+]([O-])c3)cc(N3CCCC[C@H]3CCO)nc12; test: as above
LEE011/Ribociclib = compound: CN(C)C(=O)c1cc2cnc(Nc3ccc(N4CCNCC4)cn3)nc2n1C1CCCC1 [LEE011/Ribociclib]; test: as above
THZ531 = compound: CN(C)C/C=C/C(=O)Nc1ccc(C(=O)N2CCC[C@@H](Nc3ncc(Cl)c(-c4c[nH]c5ccccc45)n3)C2)cc1 [THZ531]; test: as above
THZ1 = compound: CN(C)C/C=C/C(=O)Nc1ccc(C(=O)Nc2cccc(Nc3ncc(Cl)c(-c4c[nH]c5ccccc45)n3)c2)cc1 [THZ1]; test: as above
Flavopiridol [6] = compound: T1, Flavopiridol; test: as above
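For GR50, 72 h in this document: breast cancer and non-malignant breast epithelial cell lines, Deep Dye Drop or Dye Drop imaging, nine half-log doses, GR normalized to time-zero plates and DMSO-only controls.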

SUM52PE
GR50, 72 h (ABT-737): 9.12 µM
GR50, 72 h (Saracatinib/AZD0530): 9.64 µM
GR50, 72 h (Flavopiridol [1]): 0.234 µM
GR50, 72 h [2]: 0.0079 µM
GR50, 72 h (Taselisib/GDC0032): 0.0267 µM
GR value (YKL-5-124; 0.001 µM): 0.72 GR
GR value (YKL-5-124; 0.003162 µM): 0.654 GR
GR value (YKL-5-124; 0.01 µM): 0.573 GR
GR value (YKL-5-124; 0.03162 µM): 0.552 GR
GR value (YKL-5-124; 0.1 µM): 0.437 GR
GR value (YKL-5-124; 0.3162 µM): 0.391 GR
GR value (YKL-5-124; 1 µM): 0.364 GR
GR value (YKL-5-124; 3.162 µM): 0.227 GR
GR value (YKL-5-124; 10 µM): 0.0112 GR
GR value (BSJ-03-123; 0.001 µM): 1.02 GR
GR value (BSJ-03-123; 0.003162 µM): 0.851 GR
GR value (BSJ-03-123; 0.01 µM): 0.868 GR
GR value (BSJ-03-123; 0.03162 µM): 0.883 GR
GR value (BSJ-03-123; 0.1 µM): 0.862 GR
GR value (BSJ-03-123; 0.3162 µM): 0.78 GR
GR value (BSJ-03-123; 1 µM): 0.657 GR
GR value (BSJ-03-123; 3.162 µM): 0.634 GR
GR value (BSJ-03-123; 10 µM): 0.228 GR
GR value ([3]; 0.0003162 µM): 1.1 GR
GR value ([3]; 0.001 µM): 1.06 GR
GR value ([3]; 0.003162 µM): 1.01 GR
GR value ([3]; 0.01 µM): 0.97 GR
GR value ([3]; 0.03162 µM): 0.863 GR
GR value ([3]; 0.1 µM): 0.695 GR
GR value ([3]; 0.3162 µM): 0.607 GR
GR value ([3]; 1 µM): 0.475 GR
GR value ([3]; 3.162 µM): 0.348 GR
GR value ([4]; 0.001 µM): 0.991 GR
GR value ([4]; 0.003162 µM): 0.962 GR
GR value ([4]; 0.01 µM): 0.86 GR
GR value ([4]; 0.03162 µM): 0.766 GR
GR value ([4]; 0.1 µM): 0.619 GR
GR value ([4]; 0.3162 µM): 0.497 GR
GR value ([4]; 1 µM): 0.459 GR
GR value ([4]; 3.162 µM): 0.365 GR
GR value ([4]; 10 µM): 0.289 GR
GR value (Neratinib/HKI272; 0.0003162 µM): 1.01 GR
GR value (Neratinib/HKI272; 0.001 µM): 0.991 GR
GR value (Neratinib/HKI272; 0.003162 µM): 1.01 GR
GR value (Neratinib/HKI272; 0.01 µM): 1.06 GR
GR value (Neratinib/HKI272; 0.03162 µM): 1.01 GR
GR value (Neratinib/HKI272; 0.1 µM): 1.01 GR
GR value (Neratinib/HKI272; 0.3162 µM): 0.959 GR
GR value (Neratinib/HKI272; 1 µM): 0.876 GR
GR value (Neratinib/HKI272; 3.162 µM): 0.503 GR
GR value ([5]; 0.0001 µM): 1.08 GR
GR value ([5]; 0.0003162 µM): 1.14 GR
GR value ([5]; 0.001 µM): 1.01 GR
GR value ([5]; 0.003162 µM): 1.05 GR
GR value ([5]; 0.01 µM): 0.925 GR
GR value ([5]; 0.03162 µM): -0.0619 GR
GR value ([5]; 0.1 µM): -0.245 GR
GR value ([5]; 0.3162 µM): -0.322 GR
GR value ([5]; 1 µM): -0.175 GR
GR value (LEE011/Ribociclib; 0.001 µM): 0.991 GR
GR value (LEE011/Ribociclib; 0.003162 µM): 0.857 GR
GR value (LEE011/Ribociclib; 0.01 µM): 0.861 GR
GR value (LEE011/Ribociclib; 0.03162 µM): 0.86 GR
GR value (LEE011/Ribociclib; 0.1 µM): 0.822 GR
GR value (LEE011/Ribociclib; 0.3162 µM): 0.797 GR
GR value (LEE011/Ribociclib; 1 µM): 0.69 GR
GR value (LEE011/Ribociclib; 3.162 µM): 0.681 GR
GR value (LEE011/Ribociclib; 10 µM): 0.54 GR
GR value (THZ531; 0.0001 µM): 1.05 GR
GR value (THZ531; 0.0003162 µM): 0.984 GR
GR value (THZ531; 0.001 µM): 0.937 GR
GR value (THZ531; 0.003162 µM): 0.994 GR
GR value (THZ531; 0.01 µM): 1.02 GR
GR value (THZ531; 0.03162 µM): 0.978 GR
GR value (THZ531; 0.1 µM): 0.818 GR
GR value (THZ531; 0.3162 µM): 0.186 GR
GR value (THZ531; 1 µM): -0.226 GR
GR value (THZ1; 0.0001 µM): 1.03 GR
GR value (THZ1; 0.0003162 µM): 1.01 GR
GR value (THZ1; 0.001 µM): 1.04 GR
GR value (THZ1; 0.003162 µM): 0.8 GR
GR value (THZ1; 0.01 µM): 0.733 GR
GR value (THZ1; 0.03162 µM): 0.0891 GR
GR value (THZ1; 0.1 µM): -0.0885 GR
GR value (THZ1; 0.3162 µM): -0.151 GR
GR value (THZ1; 1 µM): -0.403 GR
GR value (Flavopiridol [6]; 0.0001 µM): 1.07 GR
GR value (Flavopiridol [6]; 0.0003162 µM): 1.06 GR
GR value (Flavopiridol [6]; 0.001 µM): 0.942 GR
GR value (Flavopiridol [6]; 0.003162 µM): 0.915 GR
GR value (Flavopiridol [6]; 0.01 µM): 1.02 GR
GR value (Flavopiridol [6]; 0.03162 µM): 0.945 GR
GR value (Flavopiridol [6]; 0.1 µM): 0.8 GR
GR value (Flavopiridol [6]; 0.3162 µM): 0.357 GR
GR value (Flavopiridol [6]; 1 µM): -0.26 GR
